Data: patent US20260284069A1, “PARG INHIBITORY COMPOUNDS” (FoRx Therapeutics AG, priority 2023, published 2026)
Where a name gives a salt, the structure may show the parent alone. Read-outs that look alike come from different tables or passages of the source.

Experiments:
NCIH-460 cells = experiment: Cellular viability assay (NCIH-460, PARG-inhibition sensitive cell line); type: cell-based; conditions: Cell Titer-Glo, read-out: EC50 determined in NCIH-460 cells, cellular viability assay
Method: (§1) NCIH-460 as a PARG-inhibition sensitive cell line and U2OS as PARG-inhibition insensitive cell line were plated at 1000 cells/well and 2000 cells/well, respectively, in 96-well white plates with clear flat bottom. After 24 hours, the compounds were added with the Tecan digital dispenser (D300e), in duplicates. The outer wells of the plate were excluded. After 96 hours of incubation, 150 μl of the growth medium were removed and 50 μl of Cell Titer-Glo (Promega) were added per well. Following an incubation of 10 minutes, luminescence was read using a plate reader (Tecan). Averaged values of the samples were normalized to DMSO treated control samples. Curves were fit as % of the control vs. log of the compound concentration using a 4 parameter log-logistic function: […]

human PARG = biological target: T1, human PARG (Homo sapiens, UniProt Q86W56, A967T/C963S/D927K/H446G/I916T/L447S/L473S/M841I/N479S/R811K/S802A/S858P/T924D); experiment: PARG enzymatic IC50 assay; type: biochemical; conditions: PARG protein, 2 hours incubation; substrate ADP-ribose-pNP, absorbance 405 nm; read-out: IC50 determined in PARG enzymatic assay
T1 construct: human PARG (448-976 [H446G, L447S, L473S); 6His-TwinStrep (protease-cleavable) (N, cleaved yes); Gly-Ser at positions 446-447, given as H446G, L447S; host or cells: E. coli BL21 (DE3)
Method: A codon optimized gene encoding human PARG (448-976 [H446G, L447S, L473S, N479S, S802A, R811K, M841I, S858P, I916T, T924D, D927K, C963S, A967T]) was synthesized by Genscript, and cloned into pET15b (NcoI/BamHI) with an N-terminal, […] protease cleavable 6His-TwinStrep tag. Expression of the protein in E. coli BL21 (DE3) was induced by addition of 0.2 mM IPTG to a shake flask culture grown to OD600=0.8 at 37° C. Growth was allowed to continue at 30° C. for a further 20 hours before harvesting by centrifugation and storage of the cell pellet at −80° C.
Protein was purified by IMAC and SEC: frozen cell pellets (typically 40 g wet weight) were resuspended by homogenization in 5 volumes buffer A (25 mM Tris/HCl pH 8.0, 200 mM NaCl, 2 mM DTT), supplemented with 1 mg of DNase I from bovine pancreas (Sigma-Aldrich) and protease inhibitors (Roche Complete™ EDTA-free protease inhibitor tablet), and lysed by passage through a Constant Systems BasicZ homogenizer. The lysate was clarified by centrifugation for 60 minutes at 25,000 g, 4° C., and the lysate supernatant was loaded onto 5 ml StrepTrap HP (Cytiva) pre-equilibrated with buffer A. The column was washed with buffer A (~10 CV), then buffer B containing 1M KCl (~5 CV), and then the protein was eluted with buffer A containing 2.5 mM d-Desthiobiotin. Pooled fractions containing 6HisTwinStrep-TEV-hPARG were incubated with TEV protease overnight at 4° C. hPARG was separated from uncleaved material and […] protease through gel filtration with Superdex75 sizing column (GE Healthcare) pre-equilibrated with SEC buffer (15 mM Tris/HCl pH 8.5, 100 mM NaCl, 2 mM DTT). Pooled fractions containing pure hPARG were concentrated using a 10 k MWCO spin concentrator (VivaSpin) to 10 mg/mL, and then either used immediately for crystallisation or snap-frozen in liquid nitrogen for storage at −80° C.
PARG enzyme as incubated with compound or vehicle (DMSO) for 2 hours in a 384 well plate. After adding the PARG substrate ADP-ribose-pNP, the plate was read for absorbance intensity at 405 nm. The vehicle (DMSO) with high absorbance intensity represents no inhibition of enzymatic reaction while the low control (no enzyme) with low absorbance intensity represents full inhibition of enzymatic reaction.
• hPARG: Peak Protein, 30 nM • Substrate: ADP-pNP, 800 μM, Jena Bioscience catalog #NU-955 • Reaction time: 60 minutes • Assay buffer: 50 mM Tris-HCl pH 8.0, 100 mM NaCl, 2 mM DTT • Temperature: 30° C. • Total volume: 30 μL
• 0% inhibition control: DMSO • 100% inhibition control: No enzyme
The protocol that was used for enzyme reaction and detection is as follows: • 1. Transfer 100 nL of the final concentration of test compounds or vehicle (DMSO) to the appropriate wells of a microtiter plate. • 2. Centrifuge the plate at 1000 rpm for 1 minute. • 3. Transfer 14.6 μL of 2× final concentration of enzyme in assay buffer or assay buffer alone to the appropriate wells. • 4. Centrifuge the plate at 1000 rpm for 1 minute. • 5. Incubate the plate at room temperature for 15 minutes or 2 hours. • 6. Transfer 15.4 μL of 2× substrate in assay buffer to all the test wells. • 7. Centrifuge the plate at 1000 rpm for 1 minute. • 8. Read the plate on a plate reader (e.g., Spark Tecan).

U2OS cells = experiment: Cellular viability assay (U2OS, PARG-inhibition insensitive cell line); type: cell-based; conditions: 96 hours incubation, Cell Titer-Glo, read-out: EC50 determined in U2OS cells, cellular viability assay
Method: as §1

PARG = biological target: T2, PARG (Homo sapiens, UniProt Q86W56); experiment: Cellular PAR chain assay; type: cell-based; conditions: U2OS cells, 1 hour compound pretreatment then 1-hour TMZ treatment; % PAR chain positive cells by flow cytometry; read-out: EC50 determined in cellular PAR chain assay
T2 construct: endogenous in cells; host or cells: U2OS
Method: The ability of compounds to inhibit PARG in response to DNA damage, was assessed with U2OS cells pretreated with the compounds for 1 hour, following a 1-hour treatment with the DNA alkylating agent temozolomide (TMZ). […] The cells were incubated for 2 hours at room temperature with a mouse monoclonal antibody against poly (ADP) ribose (PAR) polymer. The cells were washed and incubated with an anti-mouse Alexa-488 conjugated secondary antibody for 1 hour at room temperature. Propidium iodide staining was used to determine DNA content in the cells (staining at 4° C. overnight). The fluorescence intensity of the cells was assessed by flow cytometry (Cytoflex from Beckmann) and the percentage of PAR chain positive cells (gated in relation to TMZ+DMSO treated control) was determined. PAR chain positive cells % were fit against the concentration of the compound using a 4 parameter log-logistic function, generating PAR chain EC50 values: […]

[1] = Homo sapiens, NCI-H460, 96 h, 96 hours incubation

T2 sequence (Q86W56 whole entry): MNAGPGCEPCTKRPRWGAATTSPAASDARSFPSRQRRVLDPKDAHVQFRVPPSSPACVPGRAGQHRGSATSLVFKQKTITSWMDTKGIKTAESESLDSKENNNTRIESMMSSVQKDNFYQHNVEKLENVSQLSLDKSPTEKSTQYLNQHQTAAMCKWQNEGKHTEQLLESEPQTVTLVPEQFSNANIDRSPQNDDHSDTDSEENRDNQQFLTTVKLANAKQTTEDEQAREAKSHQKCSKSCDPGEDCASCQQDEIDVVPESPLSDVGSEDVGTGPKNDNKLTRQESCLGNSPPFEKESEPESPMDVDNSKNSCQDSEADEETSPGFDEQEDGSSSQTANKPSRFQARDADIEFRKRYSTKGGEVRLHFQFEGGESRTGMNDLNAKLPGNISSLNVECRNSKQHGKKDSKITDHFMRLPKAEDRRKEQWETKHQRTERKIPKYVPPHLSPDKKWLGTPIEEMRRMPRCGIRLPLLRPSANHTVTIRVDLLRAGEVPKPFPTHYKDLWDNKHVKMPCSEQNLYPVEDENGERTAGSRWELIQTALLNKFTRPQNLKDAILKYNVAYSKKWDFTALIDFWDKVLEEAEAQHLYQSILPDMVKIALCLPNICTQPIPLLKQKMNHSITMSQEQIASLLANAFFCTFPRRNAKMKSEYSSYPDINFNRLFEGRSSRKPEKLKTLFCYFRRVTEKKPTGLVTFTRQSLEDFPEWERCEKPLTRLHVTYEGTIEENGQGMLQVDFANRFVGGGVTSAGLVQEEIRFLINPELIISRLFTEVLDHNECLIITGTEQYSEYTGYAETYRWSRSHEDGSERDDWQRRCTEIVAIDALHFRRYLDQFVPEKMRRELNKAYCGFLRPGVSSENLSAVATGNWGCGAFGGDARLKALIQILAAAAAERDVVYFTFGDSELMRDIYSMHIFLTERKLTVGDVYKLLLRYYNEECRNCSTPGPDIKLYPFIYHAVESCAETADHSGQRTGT
T1 sequence (Q86W56 446-976 H446G/L447S/L473S/N479S/S802A/R811K/M841I/S858P/I916T/T924D/D927K/C963S/A967T): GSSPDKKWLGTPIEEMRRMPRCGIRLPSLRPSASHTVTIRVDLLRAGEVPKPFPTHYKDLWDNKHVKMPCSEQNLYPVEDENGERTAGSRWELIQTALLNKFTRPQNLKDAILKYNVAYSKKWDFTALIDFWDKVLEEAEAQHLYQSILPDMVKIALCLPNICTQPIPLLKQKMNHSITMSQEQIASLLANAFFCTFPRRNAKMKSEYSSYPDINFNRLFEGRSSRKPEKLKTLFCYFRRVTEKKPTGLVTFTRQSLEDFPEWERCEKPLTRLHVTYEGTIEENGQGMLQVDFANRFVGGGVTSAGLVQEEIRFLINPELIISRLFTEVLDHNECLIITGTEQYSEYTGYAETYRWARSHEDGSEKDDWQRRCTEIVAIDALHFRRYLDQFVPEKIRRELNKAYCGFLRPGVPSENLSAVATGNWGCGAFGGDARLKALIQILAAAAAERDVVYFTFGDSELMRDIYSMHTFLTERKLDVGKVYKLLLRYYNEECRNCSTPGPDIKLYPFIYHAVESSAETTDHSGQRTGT

IC50 (human PARG) [µM]	EC50 (U2OS cells; Homo sapiens, U2OS, 96 h) [µM]	EC50 (U2OS cells) [µM]	EC50 (PARG) [µM]	Structure (SMILES)	EC50 (NCIH-460 cells; 96 hours incubation) [µM]	EC50 (NCIH-460 cells; [1]) [µM]	EC50 (NCIH-460 cells; Homo sapiens, NCI-H460, 96 hours incubation) [µM]	EC50 (U2OS cells; Homo sapiens) [µM]
0.015	> 11.9	–	–	CC1(C)CN(c2cc(S(=O)(=O)NC3(C)CC3)cn3c(-c4nnc(C(F)F)s4)ncc23)CC(CO)N1 (single isomer, unassigned) [Example 14a, (R or S)-3-(5-(difluoromethyl)-1,3,4-thiadiazol-2-yl)-8-(5-(hydroxymethyl)-3,3-dimethylpiperazin-1-yl)-N-(1-methylcyclopropyl)imidazo[1,5-a]pyridine-6-sulfonamide]	1.79	–	–	–
0.012	–	> 11.4	–	CC1(C)CN(c2cc(S(=O)(=O)NC3(C)CC3)cn3c(-c4nnc(C(F)F)s4)ncc23)CC(CO)N1 (single isomer, unassigned) [Example 14b, (S or R)-3-(5-(difluoromethyl)-1,3,4-thiadiazol-2-yl)-8-(5-(hydroxymethyl)-3,3-dimethylpiperazin-1-yl)-N-(1-methylcyclopropyl)imidazo[1,5-a]pyridine-6-sulfonamide]	0.0774	–	–	–
0.011	12.6	–	–	C[C@H]1CN(c2cc(S(=O)(=O)NC3(C)CC3)cn3c(-c4nnc(C(F)F)s4)cnc23)C[C@H](C)N1 [Example 1, 3-(5-(difluoromethyl)-1,3,4-thiadiazol-2-yl)-8-((3S,5S)-3,5-dimethylpiperazin-1-yl)-N-(1-methylcyclopropyl)imidazo[1,2-a]pyridine-6-sulfonamide formate]	–	0.07	–	–
0.011	13.3	–	–	CC1(NS(=O)(=O)c2cc(C3=CCNCC3(F)F)c3c(Cl)nc(-c4nnc(C(F)F)s4)n3c2)CC1 [Example 2, 1-chloro-8-(3,3-difluoro-1,2,3,6-tetrahydropyridin-4-yl)-3-(5-(difluoromethyl)-1,3,4-thiadiazol-2-yl)-N-(1-methylcyclopropyl)imidazo[1,5-a]pyridine-6-sulfonamide]	–	0.199	–	–
0.012	> 11	–	–	COC[C@H]1CN(c2cc(S(=O)(=O)NC3(C)CC3)cn3c(-c4nnc(C(F)F)s4)ncc23)C[C@H](COC)N1 [Example 3, 8-((3R,5R)-3,5-bis(methoxymethyl)piperazin-1-yl)-3-(5-(difluoromethyl)-1,3,4-thiadiazol-2-yl)-N-(1-methylcyclopropyl)imidazo[1,5-a]pyridine-6-sulfonamide formate]	–	0.019	–	–
0.011	> 20	–	–	CN=S1(=O)CCN(c2cc(S(=O)(=O)NC3(C)CC3)cn3c(-c4nnc(C(F)F)s4)ncc23)CC1C (stereo not drawn) [Example 4, (Cis or Trans)-3-(5-(difluoromethyl)-1,3,4-thiadiazol-2-yl)-8-(2-methyl-1-(methylimino)-1-oxido-116-thiomorpholino)-N-(1-methylcyclopropyl)imidazo[1,5-a]pyridine-6-sulfonamide]	–	0.111	–	–
–	–	> 20	–	CN=S1(=O)CCN(c2cc(S(=O)(=O)NC3(C)CC3)cn3c(-c4nnc(C(F)F)s4)ncc23)CC1C (stereo not drawn) [Example 5, (Trans or Cis)-3-(5-(difluoromethyl)-1,3,4-thiadiazol-2-yl)-8-(2-methyl-1-(methylimino)-1-oxido-116-thiomorpholino)-N-(1-methylcyclopropyl)imidazo[1,5-a]pyridine-6-sulfonamide]	0.208	–	–	–
0.011	> 20	–	–	CC1CN(c2cc(S(=O)(=O)NC3(C)CC3)cn3c(-c4nnc(C(F)F)s4)ncc23)CC2(CC2)N1 (centres unmarked) [Example 10, 3-(5-(difluoromethyl)-1,3,4-thiadiazol-2-yl)-8-(5-methyl-4,7-diazaspiro[2.5]octan-7-yl)-N-(1-methylcyclopropyl)imidazo[1,5-a]pyridine-6-sulfonamide formate]	–	0.418	–	–
0.011	3.87	–	0.006	CC1(NS(=O)(=O)c2cc(C3=CCNCC3)c3c(C(F)(F)F)nc(-c4nnc(C(F)F)s4)n3c2)CC1 [Example 12, 3-(5-(difluoromethyl)-1,3,4-thiadiazol-2-yl)-N-(1-methylcyclopropyl)-8-(1,2,3,6-tetrahydropyridin-4-yl)-1-(trifluoromethyl)imidazo[1,5-a]pyridine-6-sulfonamide formate]	–	0.094	–	–
0.016	3.59	–	0.005	C[C@H]1CN(c2cc(S(=O)(=O)NC3(C)CC3)cn3c(-c4nnc(C(F)F)s4)nc(F)c23)C[C@H](C)N1 [Example 13, 3-(5-(difluoromethyl)-1,3,4-thiadiazol-2-yl)-8-((3S,5S)-3,5-dimethylpiperazin-1-yl)-1-fluoro-N-(1-methylcyclopropyl)imidazo[1,5-a]pyridine-6-sulfonamide]	–	0.035	–	–
0.011	9.52	–	–	CC1(C)CN(c2cc(S(=O)(=O)NC3(C)CC3)cn3c(-c4nnc(C(F)F)s4)ncc23)CC(CO)N1 (centres unmarked) [Example 14, 3-(5-(difluoromethyl)-1,3,4-thiadiazol-2-yl)-8-(5-(hydroxymethyl)-3,3-dimethylpiperazin-1-yl)-N-(1-methylcyclopropyl)imidazo[1,5-a]pyridine-6-sulfonamide]	–	0.094	–	–

Structure (SMILES)	IC50 (human PARG) [µM]	EC50 (U2OS cells; Homo sapiens, U2OS, 96 h) [µM]	EC50 (U2OS cells) [µM]	EC50 (PARG) [µM]	EC50 (NCIH-460 cells; 96 hours incubation) [µM]	EC50 (NCIH-460 cells; [1]) [µM]	EC50 (NCIH-460 cells; Homo sapiens, NCI-H460, 96 hours incubation) [µM]	EC50 (U2OS cells; Homo sapiens) [µM]
CC1(NS(=O)(=O)c2cc(C3=CCNCC3)c3c(C4CC4)nc(-c4nnc(C(F)F)s4)n3c2)CC1 [Example 11, 1-cyclopropyl-3-(5-(difluoromethyl)-1,3,4-thiadiazol-2-yl)-N-(1-methylcyclopropyl)-8-(1,2,3,6-tetrahydropyridin-4-yl)imidazo[1,5-alpyridine-6-sulfonamide formate]	0.016	–	–	0.009	–	–	0.074	1720
